Values quoted from earlier work in patent US20140065213A1, “Sustained Release Paracetamol Formulations” (GlaxoSmithKline, LLC, priority 2011, published 2014).

For `CC(=O)Nc1ccc(O)cc1` [paracetamol, N-acetyl-p-aminophenol], the “tmax (maximum plasma concentration)” value (oral doses of conventional immediate release tablets) is given as 0.5 to 1.5 h and the elimination half-life (reported) is given as 1.9 to 2.5 h.
